Values after ≈ are worked out from the molar mass of the structure shown. Like-named read-outs stand apart in the source and are kept apart here.
Legend:
[1] = test system: Cryptococcus neoformans ATCC 90113; assay: In vitro antifungal susceptibility testing (modified NCCLS method); assay type: cell-based; settings: for MFC / MIC: ATCC90113
[2] = test system: Azole-susceptible and Azole-resistant Candida albicans Strains; assay: Antifungal activity against azole-susceptible and azole-resistant patient isolates; assay type: cell-based; settings: for IC50 / IC80: Candida albicans; for Activity against fluconazole-resistant C. albicans strains (in words): isolates from patients during fluconazole therapy
Description: Antimicrobial Assay. Susceptibility testing is performed using a modified version of the National Committee for Clinical Laboratory Standards methods. M intracelluare is tested using a modified method of Franzblau, et al. Seventy-two to 96 h prior to the assay, the M intracellulare subculture is prepared by resuspending cells from the surface of the slant in Middlebrook 7H9 broth with OADC enrichment and incubating at 37° C. and 10% CO2. On the day of the assay, prepared samples (dissolved in DMSO) are serially-diluted using 20%/0.9% DMSO/saline and transferred in duplicate to 96 well flat bottom microplates. Candida spp. and C. neoformans inocula are prepared by picking 1–3 colonies from agar plates and resuspending in ˜5 mL 0.9% sterile saline. The absorption of 10011 of the saline suspensions and the M. intracellulare subculture at 630 nm using the EL-340 Biokinetics Reader (Bio-Tek Instruments, Vermont) is compared either the 0.5 McFarland standard of 0.03 (Mi) or standard curves. The microorganisms are diluted in broth [RPMI 1640/2% dextrose/MOPS at pH 7.3 (Cellgro) for Candida spp., Sabouraud Dextrose for C. neoformans, and 5% Alamar Blue™(BioSource International, Camarillo, Calif.) in Middlebrook 7H9 broth with OADC enrichment, pH=7.3 for M. intracellulare to afford final target inocula of: Candida spp.: 1.0×10^4, C. neoformans: 1.0×10^5, and M. intracellulare: 2.0×10^6 after addition to the samples. The microbial inocula are added to the samples to achieve a final volume of 200 μl. Growth (saline only), solvent and blank (media only) controls are included on each test plate. Drug controls [Ciprofloxacin (ICN Biomedicals, Ohio) for bacteria and Amphotericin B (ICN Biomedicals, Ohio) for fungi] are included in each assay. All organisms are read at either 630 nm using the EL-340 Biokinetics Reader (Bio-Tek Instruments, Vermont) or 544ex/590em, (M. intracellulare) using the Polarstar Galaxy Plate Reader (BMG LabTechnologies, Germany) prior to and after incubation: Candida spp. at 37° C. for 18–24 h, C. neoformans at 30° C. for 72 h, and M. intracellulare at 37° C. and 10% CO2 for 72 h. Percent growth is calculated and plotted versus test concentration to afford the IC50 (sample concentration that affords 50% growth of the organism) and the minimum inhibitory concentration (MIC) and minimum fungicidal or bactericidal concentrations (MFC/MBCs). The MIC is defined as the lowest test concentration that allows no detectable growth (for M. intracellulare no color change from blue to pink). Minimum fungicidal or bactericidal concentrations are determined by removing 5 μl from each clear (or blue) well, transferring to agar and incubating as previously mentioned. The MFC/MBC is defined as the lowest test concentration that kills 100% of the organism (allows no growth on agar).
The bioassay method is a modified version of the National Committee for Clinical Laboratory Standards methods, and is same as the one described in example 8 by which the biological data of compounds 1 and 2 (Tables 1 and 2) were obtained, except that the pH of the culture media for Candida spp. was changed from 7.3 to 4.5.

C. krusei ATCC 6258 = assay: In vitro antimicrobial assay (modified NCCLS), Candida media pH 4.5; assay type: cell-based, Candida krusei; settings: Pichia kudriavzevii, ATCC6258, pH 4.5, read-out: IC50 (50% inhibitory concentration)
[3] = Isolate 1, azole-susceptible strain (first listing, r6)
[4] = Isolate 1, azole-susceptible strain (second listing, r10)
[5] = Isolate 2, azole-resistant strain
[6] = Isolate 5, azole-resistant strain
[7] = Isolate 8, azole-resistant strain
[8] = Isolate 17, azole-resistant strain

COC(/C=C/c1ccccc1)=C1\C(=O)C=C(C)C1=O [Compound 1, coruscanone A]
MFC ([1]; Cryptococcus neoformans ATCC 90113, Table 1, read-out: MFC (Minimum Fungicidal Concentration)): 6.25 mg/L (≈ 24.6 µM) | MIC ([1]; Cryptococcus neoformans ATCC 90113, Table 1, read-out: MIC (Minimum Inhibitory Concentration)): 6.25 mg/L (≈ 24.6 µM) | IC50 ([1]; Cryptococcus neoformans, ATCC90113, read-out: IC50 (50% inhibitory concentration)): 1.5 mg/L (≈ 5.9 µM) | MFC ([1]; Cryptococcus neoformans, Cr. neoformans ATCC 90113, Table 3, read-out: MFC): 2.5 mg/L (≈ 9.83 µM) | MIC ([1]; Cryptococcus neoformans, Cr. neoformans ATCC 90113, Table 3, read-out: MIC): 2.5 mg/L (≈ 9.83 µM) | IC50 [2, 3]: 0.6 mg/L (≈ 2.36 µM) | IC80 [2, 3]: 1 mg/L (≈ 3.93 µM) | IC50 [2, 4]: 0.45 mg/L (≈ 1.77 µM) | IC80 [2, 4]: 0.6 mg/L (≈ 2.36 µM) | IC50 [2, 5]: 0.9 mg/L (≈ 3.54 µM) | IC80 [2, 5]: 1 mg/L (≈ 3.93 µM) | IC50 [2, 6]: 0.4 mg/L (≈ 1.57 µM) | IC80 [2, 6]: 0.6 mg/L (≈ 2.36 µM) | IC50 [2, 7]: 0.9 mg/L (≈ 3.54 µM) | IC80 [2, 7]: 1 mg/L (≈ 3.93 µM) | IC50 [2, 8]: 0.3 mg/L (≈ 1.18 µM) | IC80 [2, 8]: 0.9 mg/L (≈ 3.54 µM) | IC95 [2, 3]: 1.50 mg/L (≈ 5.9 µM) | IC95 [2, 4]: 0.75 mg/L (≈ 2.95 µM) | IC95 [2, 5]: 1.50 mg/L (≈ 5.9 µM) | IC95 [2, 6]: 0.70 mg/L (≈ 2.75 µM) | IC95 [2, 7]: 1.50 mg/L (≈ 5.9 µM) | IC95 ([2]; Isolate 17, azole-resistant strain, highest test concentration 100 μg/mL): 1.50 mg/L (≈ 5.9 µM) | Activity against fluconazole-resistant C. albicans strains (in words) [2]: retains equivalent activity relative to the susceptible strains | Activity against fluconazole-resistant C. albicans strains (in words) ([2]; listed as coruscanone A): inhibits | IC50 (C. krusei ATCC 6258): 2.5 mg/L (≈ 9.83 µM)
